Measured values reported in PubChem BioAssay AID1963874 (Molecular Pharmacology Branch, DTP, NCI, 2024).

Test system: 253994-281-T-J1-PDC KRAS-mutant spheroids with HUVEC/MSC, viability
Assay: Anticancer human tumor 253994-281-T-J1-PDC patient-derived colorectal carcinoma cell line growth inhibition [KRAS2]
Conditions: for IC50: curve of first compound; for viability, T/C: stronger effect = lower value
Summary of the method: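 Combination screen of spheroid viability in tumor-cell co-cultures with endothelial (HUVEC) and mesenchymal stem cell stroma. Each agent was tested in half-log dilutions, topping at clinical Cmax or at 10 microM without a known Cmax.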

[1] = second compound 0.1 µM, first compound 0.00316 µM
[2] = second compound 0.1 µM, first compound 0.01 µM
[3] = second compound 0.1 µM, first compound 0.0316 µM
[4] = second compound 0.1 µM, first compound 0.1 µM
[5] = second compound 0.1 µM, first compound 0.316 µM
[6] = second compound 0.1 µM, first compound 1 µM
[7] = second compound 0.316 µM, first compound 0.00316 µM
[8] = second compound 0.316 µM, first compound 0.01 µM
[9] = second compound 0.316 µM, first compound 0.0316 µM
[10] = second compound 0.316 µM, first compound 0.1 µM
[11] = second compound 0.316 µM, first compound 0.316 µM
[12] = second compound 0.316 µM, first compound 1 µM
[13] = second compound 1 µM, first compound 0.00316 µM
[14] = second compound 1 µM, first compound 0.01 µM
[15] = second compound 1 µM, first compound 0.0316 µM
[16] = second compound 1 µM, first compound 0.1 µM
[17] = second compound 1 µM, first compound 0.316 µM
[18] = second compound 1 µM, first compound 1 µM
[19] = second compound 3.16 µM, first compound 0.00316 µM
[20] = second compound 3.16 µM, first compound 0.01 µM
[21] = second compound 3.16 µM, first compound 0.0316 µM
[22] = second compound 3.16 µM, first compound 0.1 µM
[23] = second compound 3.16 µM, first compound 0.316 µM
[24] = second compound 3.16 µM, first compound 1 µM
[25] = second compound 0.1 µM, first compound 0.000316 µM
[26] = second compound 0.1 µM, first compound 0.001 µM
[27] = second compound 0.316 µM, first compound 0.000316 µM
[28] = second compound 0.316 µM, first compound 0.001 µM
[29] = second compound 1 µM, first compound 0.000316 µM
[30] = second compound 1 µM, first compound 0.001 µM
[31] = second compound 3.16 µM, first compound 0.000316 µM
[32] = second compound 3.16 µM, first compound 0.001 µM
[33] = second compound 10 µM, first compound 0.000316 µM
[34] = second compound 10 µM, first compound 0.001 µM
[35] = second compound 10 µM, first compound 0.00316 µM
[36] = second compound 10 µM, first compound 0.01 µM
[37] = second compound 10 µM, first compound 0.0316 µM
[38] = second compound 10 µM, first compound 0.1 µM
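Further: spheroids exposed to agents for seven days before readout.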
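Wherever viability, T/C is given: percent of DMSO vehicle control viability.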

CCN1CCN(Cc2ccc(Nc3ncc(F)c(-c4cc(F)c5nc(C)n(C(C)C)c5c4)n3)nc2)CC1 + C=CC(=O)N1CCN(c2nc(OCC3CCCN3C)nc3c2CCN(c2cccc4cccc(C)c24)C3)CC1CC#N
IC50 (second compound 0.0316 µM): > 1 µM
IC50 (second compound 0.1 µM): 0.751 µM
IC50 (second compound 0.316 µM): > 1 µM
IC50 (second compound 1 µM): 0.586 µM
IC50 (second compound 3.16 µM): 0.0414 µM
viability, T/C (second compound 0.0316 µM, first compound 0.00316 µM): 91.2%
viability, T/C (second compound 0.0316 µM, first compound 0.01 µM): 105%
viability, T/C (second compound 0.0316 µM, first compound 0.0316 µM): 79.4%
viability, T/C (second compound 0.0316 µM, first compound 0.1 µM): 92.2%
viability, T/C (second compound 0.0316 µM, first compound 0.316 µM): 66.8%
viability, T/C (second compound 0.0316 µM, first compound 1 µM): 51.6%
viability, T/C [1]: 88.7%
viability, T/C [2]: 89.7%
viability, T/C [3]: 79.3%
viability, T/C [4]: 82.5%
viability, T/C [5]: 73.4%
viability, T/C [6]: 42.2%
viability, T/C [7]: 90.5%
viability, T/C [8]: 92.4%
viability, T/C [9]: 85%
viability, T/C [10]: 77.5%
viability, T/C [11]: 68%
viability, T/C [12]: 52.5%
viability, T/C [13]: 81.4%
viability, T/C [14]: 95.7%
viability, T/C [15]: 82.7%
viability, T/C [16]: 74.9%
viability, T/C [17]: 64.9%
viability, T/C [18]: 38%
viability, T/C [19]: 61.5%
viability, T/C [20]: 61.1%
viability, T/C [21]: 57%
viability, T/C [22]: 32.9%
viability, T/C [23]: 15.3%
viability, T/C [24]: 1.78%

CC(=O)Nc1cccc(-n2c(=O)n(C3CC3)c(=O)c3c(Nc4ccc(I)cc4F)n(C)c(=O)c(C)c32)c1 + CC1OCC2(CCN(c3cnc(Sc4ccnc(N)c4Cl)c(N)n3)CC2)C1N
IC50 (second compound 0.1 µM): 0.000565 µM
IC50 (second compound 0.316 µM): 0.000205 µM
IC50 (second compound 1 µM): < 0.0001 µM
IC50 (second compound 3.16 µM): < 0.0001 µM
IC50 (second compound 10 µM): < 0.0001 µM
viability, T/C (second compound 0.1 µM, first compound 0.0001 µM): 64.3%
viability, T/C [25]: 68.6%
viability, T/C [26]: 34.1%
viability, T/C [1]: 17.9%
viability, T/C [2]: 10.1%
viability, T/C [3]: 5.82%
viability, T/C (second compound 0.316 µM, first compound 0.0001 µM): 63.1%
viability, T/C [27]: 42.8%
viability, T/C [28]: 22.3%
viability, T/C [7]: 14.1%
viability, T/C [8]: 8.18%
viability, T/C [9]: 4.42%
viability, T/C (second compound 1 µM, first compound 0.0001 µM): 40.5%
viability, T/C [29]: 27.7%
viability, T/C [30]: 14.1%
viability, T/C [13]: 9.38%
viability, T/C [14]: 7.13%
viability, T/C [15]: 4.04%
viability, T/C (second compound 3.16 µM, first compound 0.0001 µM): 29.3%
viability, T/C [31]: 23.6%
viability, T/C [32]: 10.8%
viability, T/C [19]: 5.83%
viability, T/C [20]: 6.59%
viability, T/C [21]: 3.09%
viability, T/C (second compound 10 µM, first compound 0.0001 µM): 16.5%
viability, T/C [33]: 7.93%
viability, T/C [34]: 5.92%
viability, T/C [35]: 4.52%
viability, T/C [36]: 3.06%
viability, T/C [37]: 2.51%

CN(C)C/C=C/C(=O)Nc1cc2c(Nc3ccc(F)c(Cl)c3)ncnc2cc1O[C@H]1CCOC1 + C=CC(=O)N1CCN(c2nc(=O)n(-c3c(C)ccnc3C(C)C)c3nc(-c4c(O)cccc4F)c(F)cc23)C(C)C1
IC50 (second compound 0.1 µM): > 0.1 µM
IC50 (second compound 0.316 µM): > 0.1 µM
IC50 (second compound 1 µM): > 0.1 µM
IC50 (second compound 3.16 µM): > 0.1 µM
IC50 (second compound 10 µM): > 0.1 µM
viability, T/C [25]: 110%
viability, T/C [26]: 116%
viability, T/C [1]: 84.9%
viability, T/C [2]: 81.3%
viability, T/C [3]: 84.9%
viability, T/C [4]: 61.9%
viability, T/C [27]: 105%
viability, T/C [28]: 86.5%
viability, T/C [7]: 80.4%
viability, T/C [8]: 90.7%
viability, T/C [9]: 68.9%
viability, T/C [10]: 63%
viability, T/C [29]: 87.1%
viability, T/C [30]: 96.1%
viability, T/C [13]: 79.9%
viability, T/C [14]: 70.8%
viability, T/C [15]: 64.5%
viability, T/C [16]: 85%
viability, T/C [31]: 102%
viability, T/C [32]: 97.8%
viability, T/C [19]: 91.3%
viability, T/C [20]: 88.7%
viability, T/C [21]: 78.8%
viability, T/C [22]: 69.2%
viability, T/C [33]: 101%
viability, T/C [34]: 102%
viability, T/C [35]: 79.7%
viability, T/C [36]: 83.6%
viability, T/C [37]: 73.5%
viability, T/C [38]: 68.7%

COc1cc(Nc2ncc3c(n2)-c2ccc(Cl)cc2C(c2c(F)cccc2OC)=NC3)ccc1C(=O)O + C=CC(=O)N1CCN(c2nc(=O)n(-c3c(C)ccnc3C(C)C)c3nc(-c4c(O)cccc4F)c(F)cc23)C(C)C1
IC50 (second compound 0.1 µM): > 10 µM
IC50 (second compound 0.316 µM): > 10 µM
IC50 (second compound 1 µM): > 10 µM
IC50 (second compound 3.16 µM): > 10 µM
IC50 (second compound 10 µM): > 10 µM
viability, T/C [3]: 87.4%
viability, T/C [4]: 48.2%
viability, T/C [5]: 57%
viability, T/C [6]: 62.5%
viability, T/C (second compound 0.1 µM, first compound 3.16 µM): 70.2%
viability, T/C (second compound 0.1 µM, first compound 10 µM): 73.6%
viability, T/C [9]: 96%
viability, T/C [10]: 53%
viability, T/C [11]: 45.6%
viability, T/C [12]: 65.8%
viability, T/C (second compound 0.316 µM, first compound 3.16 µM): 68.9%
viability, T/C (second compound 0.316 µM, first compound 10 µM): 67.7%
viability, T/C [15]: 87.2%
viability, T/C [16]: 57.4%
viability, T/C [17]: 47.2%
viability, T/C [18]: 56.9%
viability, T/C (second compound 1 µM, first compound 3.16 µM): 72.2%
viability, T/C (second compound 1 µM, first compound 10 µM): 76.2%
viability, T/C [21]: 89.2%
viability, T/C [22]: 61.8%
viability, T/C [23]: 48.5%
viability, T/C [24]: 59.1%
viability, T/C (second compound 3.16 µM, first compound 3.16 µM): 70.8%
viability, T/C (second compound 3.16 µM, first compound 10 µM): 82.4%
viability, T/C [37]: 91.9%
viability, T/C [38]: 55.1%
viability, T/C (second compound 10 µM, first compound 0.316 µM): 52.1%
viability, T/C (second compound 10 µM, first compound 1 µM): 69.6%
viability, T/C (second compound 10 µM, first compound 3.16 µM): 62.1%
viability, T/C (second compound 10 µM, first compound 10 µM): 67%
